The values that follow come from patent publication US20070021380A1, “Novel drug delivery compositions” (priority 2005, published 2007).

In this experiment the test system is HBV. Nature of the experiment: Anti-viral activity: viral DNA by Q-PCR in tetracycline-responsive HepAD38 cells. Conditions: for EC50: HepAD38 cells, viral DNA at day 4 post-induction, Q-PCR; for Improvement Compared to araA: therapeutic effect relative to araA (=1.00). Format: cell-based. The procedure: Tetracycline-responsive cell lines HepAD38 were used (Ladner et al., 1997), hepatoma cells that have been stably transfected with a cDNA copy of the pregenomic RNA of wild-type virus. Withdrawal of tetracycline from the culture medium results in the initiation of viral replication. Cells were cultured at 37° C. in a humidified 5% CO2/air atmosphere in seeding medium, DMEM/Ham's F12 (50/50) supplemented with 10% (v/v) heat-inactivated fetal calf serum, 100 IU/ml penicillin/50 μg/ml streptomycin mix, 400 μg/ml G418, and 0.3 μg/ml tetracycline.
Upon assay initiation, the cells were seeded in 48-well plates at a density of 1.5×10^5/well. After 2-3 days the cultures were induced for viral production by washing with prewarmed PBS and were fed with 200 μl assay medium (seeding medium without tetracycline and G418) with or without the antiviral compounds. Medium was changed after 3 days. The antiviral effect was quantified by measuring levels of viral DNA [isolated (Qiagen) from the cell cultures] at day 4 post-induction, by a real time quantitative PCR (Q-PCR) and analyzed using a SDS 7000 (Applied Biosystems, Foster City, Calif.).
A plasmid containing the full length insert of the HBV genome was used to prepare the standard curve. The amount of viral DNA produced in treated cultures was expressed as a percentage of the mock treated samples. The cytostatic effect of the various compounds was assessed employing the parent hepatoma cell line HepG2. The effect of the compounds on exponentially growing HepG2 cells was evaluated by means of the MTS method (Promega). Briefly, cells were seeded at a density of 3000/well (96 well plate) and were allowed to proliferate for 3 days in the absence or presence of compounds after which time cell density was determined.

≈ marks a conversion by molar mass, not a printed value.

One may read the EC50 as the concentration at which the effect is half-maximal. Regarding `Nc1ncnc2c1ncn2[C@@H]1O[C@H](COP(=O)(O)O)[C@@H](O)[C@@H]1O` [araAMP, araA-monophosphate], the EC50 was determined as 33 µg/mL (≈ 95 µM) and the “Improvement Compared to araA” value was 1.35.
As to `Nc1ncnc2c1ncn2[C@@H]1O[C@H](CO)[C@@H](O)[C@@H]1O` [araA], the EC50 came to 35 µg/mL (≈ 131 µM) and the “Improvement Compared to araA” value was determined as 1.00.
